Series [1] concerns Walker carcinosarcoma 256. In words: Walker carcinosarcoma 256 tumour growth inhibition in rats. Type of series: in vivo, Sprague-Dawley rats. The arrangement: ED50: unit: mg/kg. The note with it: daily p.o. for 5 days; for antitumour activity: result in words; for ED50: dose causing 50 percent reduction of tumour size, killed 9th day. An excerpt: (§1) LD50 is the dose that causes a 50 percent lethality of the animals, and ED50 is the dose that causes a 50 percent reduction of tumour size.
(§2) The experimental design and the interpretation of the results are in accordance with the standards set by the CCNSC (Cancer Chemotherpy Reports, January 1959 and December 1962).
(§3) Walker carcinosarcoma 256.
(§4) Experimental animals: Sprague-Dawley rats.
(§5) Tumour implant: Tumour pieces with 2-4 mm diameter, sub-
(§6) Therapy: Daily p.o. administration for 5 days starting on
(§7) the day following implantation.
(§8) Termination: The animals are killed on the 9th day.
(§9) Evaluation: Weights of tumours of test animals are compared
(§10) with those of control animals.

Series [2] deals with Ehrlich ascites tumour, ELD hyperdiploid. In words: Ehrlich ascites tumour, ELD hyperdiploid (46 chromosomes), growth inhibition in mice. Type of series: in vivo, SPF NMRI mice. Particulars: one i.p. injection; for antitumour activity: result in words; for Tumour weight Treated/Control: 8th day.
From the text: as §2
Ehrlich ascites tumour, ELD hyperdiploid
Experimental animals: SPF NMRI mice.
Tumour implant: 2 × 10^6 tumour cells i.p.
(§11) Therapy: One injection i.p. on the day following implanta-
(§12) Termination: The animals are killed on the 8th day.
Evaluation: Weight of tumours of test animals compared with
those of control animals.

A further series concerns Hepatome AH 130. The experiment in a line: Hepatome AH 130 tumour growth inhibition in rats. Format: in vivo, Sprague-Dawley rats. The arrangement: ED50: unit not given here. Particulars: one i.p. injection, dose causing 50 percent reduction of tumour size, killed 8th day.
From the text: as §1, §2, §4
(§13) Tumour implant: 5 × 10^6 tumour cells i.p.
as §11, §12, §9, §10

Series [3] is described as follows: Hepatome AH 130 tumour growth inhibition in rats. Type of series: in vivo, Sprague-Dawley rats. On the set-up: ED50: unit not given here. The note with it: rat, in vivo, ip, one i.p. injection; for LD50: dose causing 50 percent lethality, column head not given; for selectivity ratio: read-out: T.I. (LD50/ED50).
From the text: as §1, §2, §4, §13, §11, §12, §9, §10

For series [4], the target named is T1, rabbit uterus cytosol progesterone receptor (Oryctolagus cuniculus, UniProt P06186).
T1 construct: One ml portions of the supernatant (rabbit uterus cytosol) were pipetted into small centrifuge tubes of glass; from tissue; host or cells: uterus cytosol (105,000×g supernatant) of female rabbits pretreated with polyestradiol phosphate
T1 sequence (P06186 1-930): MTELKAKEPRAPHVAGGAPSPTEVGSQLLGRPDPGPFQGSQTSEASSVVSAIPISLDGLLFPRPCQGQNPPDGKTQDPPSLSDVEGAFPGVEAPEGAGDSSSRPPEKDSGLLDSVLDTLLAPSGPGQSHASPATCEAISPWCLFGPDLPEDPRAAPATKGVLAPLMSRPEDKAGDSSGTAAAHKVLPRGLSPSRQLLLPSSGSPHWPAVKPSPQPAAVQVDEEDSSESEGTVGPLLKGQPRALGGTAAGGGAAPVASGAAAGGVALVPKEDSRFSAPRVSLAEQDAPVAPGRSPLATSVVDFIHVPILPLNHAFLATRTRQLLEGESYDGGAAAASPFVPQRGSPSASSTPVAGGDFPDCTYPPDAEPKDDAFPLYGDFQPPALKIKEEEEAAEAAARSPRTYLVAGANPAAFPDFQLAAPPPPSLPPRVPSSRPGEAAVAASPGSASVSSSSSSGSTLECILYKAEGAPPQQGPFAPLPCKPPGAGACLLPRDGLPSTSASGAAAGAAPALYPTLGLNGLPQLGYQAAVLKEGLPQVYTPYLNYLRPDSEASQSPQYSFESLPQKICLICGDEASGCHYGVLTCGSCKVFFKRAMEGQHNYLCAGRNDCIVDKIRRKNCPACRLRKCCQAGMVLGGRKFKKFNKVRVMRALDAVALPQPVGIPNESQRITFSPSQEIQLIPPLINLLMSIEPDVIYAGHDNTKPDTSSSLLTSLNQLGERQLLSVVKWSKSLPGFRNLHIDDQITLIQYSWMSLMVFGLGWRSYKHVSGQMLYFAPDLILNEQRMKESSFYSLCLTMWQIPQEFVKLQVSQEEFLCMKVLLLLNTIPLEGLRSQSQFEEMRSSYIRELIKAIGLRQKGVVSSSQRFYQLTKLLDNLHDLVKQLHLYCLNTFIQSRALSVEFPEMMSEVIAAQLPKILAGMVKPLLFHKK
In words: Relative affinity to rabbit uterus cytosol progesterone receptor (3H-progesterone competition). Particulars: compared to progesterone; 50% competition with 3H-progesterone; 16-18 hours at 4° C. Type of series: binding. The protocol:
This example illustrates the compound's relative affinity to rabbit uterus cytosol progesterone receptor compared with progesterone. The method used for this purpose is a modification of methods already described by Kontula, K. et al. (Acta Endocrinol. 78 (1975) 574) and Terenius, L. (Steroids 23 (1974) 909) among others.
Female rabbits (3-4 pounds) from Knut Larsen, Uddevalla, Sweden, were injected i.m. with 1 mg Estradurin (polyestradiol phosphate, 1 mg/ml saline, AB Leo, Sweden). After one week, the animals were killed and the uteri were immediately removed, chilled and cut free from connective tissues. All the following operations were performed at 0°-4° C. The uteri were cut into small pieces and washed several times with 3 vol. of buffer at pH 7.4 containing 50 MM TRIS-HCl, 1.5 mM EDTA, 3 mM NaN3, 2 mM dithiothreitol, and 25% glycerol (by vol.). The tissue was homogenized in the same buffer (3 vol.) with four 15-s bursts at rheostat setting 36-37 of an Ultra Turrax (Janke and Kunkel KG, Staufen, The Federal Republic of Germany). The homogenate was centifuged in a Sorvall GLC-2 centrifuge for 15 min at 600×g. The supernatanate was recentrifuged at 105,000×g for 60 min in a Beckman ultracentrifuge model LB-65-B with rotor SW 56.
One ml portions of the supernatant (rabbit uterus cytosol) were pipetted into small centrifuge tubes of glass and were kept at -70° C. until used. The protein content was determined by the method of Lowry (J. Biol. Chem. 193 (1951) 265).
10.0 mg of each compound was dissolved in 10.0 ml 99.5% ethanol. 100 μl of this standard solution was diluted to 5.0 ml ethanol/glycerol 1:1 (v/v). The ethanol was evaporated by blowing air at 40° C. on the solution. The volume was then adjusted to 5.0 ml by adding buffer without glycerol.
The compounds were diluted with glycerol/buffer 1:1 to final concentrations between 10^-8 -10^-5 M in total 300 μl incubation media. 100 μl of each compound and of each dilution were incubated in small centrifuge tubes (2 ml) together with 100 μl (10 pg) ^3 H-progesterone (1,2,6,7-3H-progesterone, 47.8 Ci/mMol, The Radiochemical Centre, Amersham, England) and 100 μl cytosol adjusted with buffer to a final concentration of about […]. The incubations were carried out for 16-18 hours at 4° C.
The separation of bound from free radioactivity was carried out at 0° C. using the dextran coated charcoal technique (DCC). To each incubation tube was added 0.5 ml DCC-suspension (0.05% dextran-70, Pharmacia, Uppsala, Sweden and 0.5% Norit A, Sigma, Saint Louis, Missouri, U.S.A.) The tubes were agitated 2-3 times during 10 minutes whereupon they were centrifuged at 100×g for five minutes. The supernatantes were decanted directly into Scintillation vials (polyethene, Packard) containing 10 ml InstaGel (Packard). The radioactivity was counted in a Philip's liquid scintillation spectrometer Model PW 4510/00 with external standard and automatic quenching correction.
To incubation tubes were added 100 μl cytosol, 100 μl ^3 H-progesterone (10 pg) and 100 μl of different dilutions of non-radioactive progesterone in glycerol/buffer 1:1 ranging from 0-10^4 pg/100 μl. The tubes were incubated parallel with the compounds described above. The radioactivity was calculated by substracting the counted radioactivity in the incubation tubes with the radioactivity counted in incubations tubes in which the cytosol was replaced with buffer (100 μl).
The concentration of non-radioactive progesterone [P]i which competes for 50% of bound radioactive progesterone was calculated from the standard curve constructed [B] i/[B] o=0.5 where [B]i is the bound radioactivity at different concentrations of non-radioactive progesterone and [B]o is the bound radioactivity at progesterone concentration zero.
In the same manner, curves were constructed for each compound X and the concentration for each compound which competes for 50% with bound ^3 H-progesterone ([X]50) was calculated. […]

Series [5] in a line: Walker carcinosarcoma 256 tumour growth inhibition in rats. The arrangement: ED50: unit: mg/kg. Particulars: rat, in vivo, po, daily p.o. for 5 days; for LD50: dose causing 50 percent lethality; for selectivity ratio: read-out: T.I. (LD50/ED50). Type of series: in vivo, Sprague-Dawley rats.
From the text: as §1, §2, §3, §4, §5, §6, §7, §8, §9, §10

As to `CC(=O)[C@@]1(OC(=O)CNC(=O)CCCc2ccc(N(CCCl)CCCl)cc2)CC[C@H]2[C@@H]3CCC4=CC(=O)CC[C@]4(C)[C@H]3CC[C@@]21C` [Compound 4:1, 17α-/4-(4-(N,N-bis(2-chloroethyl)amino)phenyl)butanoylaminoacetoxy/pregn-4-ene-3,20-dione], the antitumour activity result in series [1] and in series [2] was “exhibit antitumour activity” each time. The compound further returned an ED50 in the series on Hepatome AH 130 of 125. This compound yielded an LD50 in series [3] of more than 250 mg/kg. Further, the selectivity ratio in series [3] was more than 2. Further, in series [4], the “relative binding affinity (RBA)” value came out at 1.1%.
For the compound `CC(=O)[C@@]1(OC(=O)COC(=O)Cc2ccc(N(CCCl)CCCl)cc2)CC[C@H]2[C@@H]3CCC4=CC(=O)CC[C@]4(C)[C@H]3CC[C@@]21C` [3:1, 17α-/4-(N,N-bis(2-chloroethyl)amino)phenylacetoxyacetoxy/pregn-4-ene-3,20-dione], the ED50 in series [1] came to 8. Also, in series [5], the LD50 was more than 250 mg/kg and the selectivity ratio was more than 31. Besides, in series [2] (50 mg/kg), the Mortality is 1/12 and the “Tumour weight Treated/Control” value is 3%. In the series with Hepatome AH 130, this compound came in with an ED50 of 3. Moreover, in series [3], the LD50 is more than 250 mg/kg and the selectivity ratio is more than 83. Further, in series [4], the “relative binding affinity (RBA)” value is listed as 6.6%.
On to `CC(=O)[C@@]1(OC(=O)CCCOC(=O)Cc2ccc(N(CCCl)CCCl)cc2)CC[C@H]2[C@@H]3CCC4=CC(=O)CC[C@]4(C)[C@H]3CC[C@@]21C` [3:4, 17α-/4-(4-(N,N-bis(2-chloroethyl)amino)phenylacetoxyy)butanoyloxy/pregn-4-ene-3,20-dione], for which the ED50 in series [1] was determined as 4; in the series on Hepatome AH 130, 2. Besides, the LD50 in series [5] was 80 mg/kg; in series [3], 50 mg/kg. The selectivity ratio in series [5] was found to be 20; in series [3], 25. Further, the antitumour activity entry in series [2] is on record as “exhibit antitumour activity”.
For `CC(=O)[C@@]1(OC(=O)COC(=O)CCCc2ccc(N(CCCl)CCCl)cc2)CC[C@H]2[C@@H]3CCC4=CC(=O)CC[C@]4(C)[C@H]3CC[C@@]21C` [Compound 3:2, 17α-/4-(4-(N,N-bis(2-chloroethyl)amino)phenyl)butanoyloxyacetoxy/pregn-4-ene-3,20-dione], the ED50 in series [1] came to 3; in the series on Hepatome AH 130, 100. The LD50 in series [5] was more than 250 mg/kg; in series [3] it was more than 1000 mg/kg. In addition, the selectivity ratio in series [5] was more than 83; in series [3] it was more than 10. In addition, in series [2] (50 mg/kg), the Mortality was 0/12. Also, the “Tumour weight Treated/Control” value in series [2] (50 mg/kg) was 1%. The “relative binding affinity (RBA)” value in series [4] is reported as 0.7%.
Consider `CC(=O)[C@@]1(OC(=O)CCCOC(=O)c2ccc(C)c(N(CCCl)CCCl)c2)CC[C@H]2[C@@H]3CCC4=CC(=O)CC[C@]4(C)[C@H]3CC[C@@]21C` [7:4, 17α-/4-(3-(N,N-bis(2-chloroethyl)amino)-4-methylbenzoyloxy)butanoyloxy/pregn-4-ene-3,20-dione], for which the antitumour activity entry in series [1] was “exhibit antitumour activity”. The antitumour activity entry in series [2] is on record as “exhibit antitumour activity”. In the series on Hepatome AH 130, this compound gave an ED50 of 16. In series [3], the median lethal dose (LD50) is more than 250 mg/kg and the selectivity ratio was more than 15. Besides, the “relative binding affinity (RBA)” value in series [4] worked out at 0.9%.
Take `CC(=O)[C@@]1(OC(=O)COC(=O)Nc2ccc(N(CCCl)CCCl)cc2)CC[C@H]2[C@@H]3CCC4=CC(=O)CC[C@]4(C)[C@H]3CC[C@@]21C` [Compound 5:1, 17α-/4-(N,N-bis(2-chloroethyl)amino)phenylcarbamoyloxyacetoxy/pregn-4-ene-3,20-dione]: the antitumour activity entry in series [1] was “exhibit antitumour activity”. In addition, in series [2] (1000 mg/kg), the Mortality is 0/12 and the “Tumour weight Treated/Control” value came out at 1%. Also, the antitumour activity entry in series [2] was “exhibit antitumour activity”. In the series with Hepatome AH 130, this compound had an ED50 of 30. In series [3], the LD50 is more than 250 mg/kg and the selectivity ratio was more than 8. The “relative binding affinity (RBA)” value in series [4] is 15.8%.
On to `CC(=O)[C@@]1(OC(=O)COC(=O)CSc2ccc(N(CCCl)CCCl)cc2)CC[C@H]2[C@@H]3CCC4=CC(=O)CC[C@]4(C)[C@H]3CC[C@@]21C` [3:5, 17α-/4-(N,N-bis(2-chloroethyl)amino)phenylthioacetoxyacetoxy/pregn-4-ene-3,20-dione], for which the antitumour activity entry in series [1] is given as “exhibit antitumour activity”. Further, the antitumour activity entry in series [2] is “exhibit antitumour activity”. The compound further came in with an ED50 in the series on Hepatome AH 130 of 50. Further, in series [3], the LD50 was more than 250 mg/kg and the selectivity ratio is more than 5.

Values taken from patent publication US4177269A, “Novel 17-esters of 17α-hydroxy gestogens, compositions containing such compounds, processes for their preparation and methods of treatment therewith” (Aktiebolaget Leo, priority 1976, dated 1979).
